Experimental data taken from ChEMBL document CHEMBL1938230, “6-Position optimization of tricyclic 4-quinolone-based inhibitors of glycogen synthase kinase-3β: discovery of nitrile derivatives with picomolar potency” (Bioorg Med Chem Lett, 2012).

Columns and labels:
[1] = target: T1, Inhibitor of nuclear factor kappa-B kinase subunit alpha (Homo sapiens) (UniProt O15111); test: Inhibition of human IKKalpha in HL-60 cells lysate assessed as reduction of labeling of acyl-phosphate ATP probe at 100 nM; format: cell-free
T1 sequence (whole entry): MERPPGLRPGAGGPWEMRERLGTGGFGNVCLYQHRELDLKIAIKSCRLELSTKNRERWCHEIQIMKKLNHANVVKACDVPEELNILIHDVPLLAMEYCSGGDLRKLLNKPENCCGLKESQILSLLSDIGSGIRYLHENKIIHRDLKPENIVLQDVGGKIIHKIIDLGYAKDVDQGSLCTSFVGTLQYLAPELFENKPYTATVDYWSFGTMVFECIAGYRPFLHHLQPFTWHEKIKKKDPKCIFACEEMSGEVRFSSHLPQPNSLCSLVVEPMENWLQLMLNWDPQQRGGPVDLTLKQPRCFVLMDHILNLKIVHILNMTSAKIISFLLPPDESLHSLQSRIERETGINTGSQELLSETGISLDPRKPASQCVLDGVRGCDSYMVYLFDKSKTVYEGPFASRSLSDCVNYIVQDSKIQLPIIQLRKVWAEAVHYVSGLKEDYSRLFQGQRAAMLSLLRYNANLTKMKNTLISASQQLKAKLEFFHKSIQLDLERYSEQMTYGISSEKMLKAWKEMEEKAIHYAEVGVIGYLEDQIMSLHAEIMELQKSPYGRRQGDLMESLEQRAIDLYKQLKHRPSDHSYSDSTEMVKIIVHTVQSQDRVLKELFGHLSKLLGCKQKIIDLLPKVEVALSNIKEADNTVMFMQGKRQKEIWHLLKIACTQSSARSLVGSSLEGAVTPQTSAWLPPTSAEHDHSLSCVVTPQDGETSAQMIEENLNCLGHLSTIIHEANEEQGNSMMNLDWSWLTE

HL-60 = test: Inhibition of human Wnk1/Wnk2/Wnk4 in HL-60 cells lysate assessed as reduction of labeling of acyl-phosphate ATP probe at 100 nM
[2] = target: Dual specificity mitogen-activated protein kinase kinase 1 (Homo sapiens) (UniProt Q02750); test: Inhibition of human MAP2K1 in HL-60 cells lysate assessed as reduction of labeling of acyl-phosphate ATP probe at 100 nM; format: cell-free
[3] = target: T2, Mitogen-activated protein kinase kinase kinase 5 (Homo sapiens) (UniProt Q99683); test: Inhibition of human MAP3K5 in HL-60 cells lysate assessed as reduction of labeling of acyl-phosphate ATP probe at 100 nM; format: cell-free
T2 sequence (whole entry): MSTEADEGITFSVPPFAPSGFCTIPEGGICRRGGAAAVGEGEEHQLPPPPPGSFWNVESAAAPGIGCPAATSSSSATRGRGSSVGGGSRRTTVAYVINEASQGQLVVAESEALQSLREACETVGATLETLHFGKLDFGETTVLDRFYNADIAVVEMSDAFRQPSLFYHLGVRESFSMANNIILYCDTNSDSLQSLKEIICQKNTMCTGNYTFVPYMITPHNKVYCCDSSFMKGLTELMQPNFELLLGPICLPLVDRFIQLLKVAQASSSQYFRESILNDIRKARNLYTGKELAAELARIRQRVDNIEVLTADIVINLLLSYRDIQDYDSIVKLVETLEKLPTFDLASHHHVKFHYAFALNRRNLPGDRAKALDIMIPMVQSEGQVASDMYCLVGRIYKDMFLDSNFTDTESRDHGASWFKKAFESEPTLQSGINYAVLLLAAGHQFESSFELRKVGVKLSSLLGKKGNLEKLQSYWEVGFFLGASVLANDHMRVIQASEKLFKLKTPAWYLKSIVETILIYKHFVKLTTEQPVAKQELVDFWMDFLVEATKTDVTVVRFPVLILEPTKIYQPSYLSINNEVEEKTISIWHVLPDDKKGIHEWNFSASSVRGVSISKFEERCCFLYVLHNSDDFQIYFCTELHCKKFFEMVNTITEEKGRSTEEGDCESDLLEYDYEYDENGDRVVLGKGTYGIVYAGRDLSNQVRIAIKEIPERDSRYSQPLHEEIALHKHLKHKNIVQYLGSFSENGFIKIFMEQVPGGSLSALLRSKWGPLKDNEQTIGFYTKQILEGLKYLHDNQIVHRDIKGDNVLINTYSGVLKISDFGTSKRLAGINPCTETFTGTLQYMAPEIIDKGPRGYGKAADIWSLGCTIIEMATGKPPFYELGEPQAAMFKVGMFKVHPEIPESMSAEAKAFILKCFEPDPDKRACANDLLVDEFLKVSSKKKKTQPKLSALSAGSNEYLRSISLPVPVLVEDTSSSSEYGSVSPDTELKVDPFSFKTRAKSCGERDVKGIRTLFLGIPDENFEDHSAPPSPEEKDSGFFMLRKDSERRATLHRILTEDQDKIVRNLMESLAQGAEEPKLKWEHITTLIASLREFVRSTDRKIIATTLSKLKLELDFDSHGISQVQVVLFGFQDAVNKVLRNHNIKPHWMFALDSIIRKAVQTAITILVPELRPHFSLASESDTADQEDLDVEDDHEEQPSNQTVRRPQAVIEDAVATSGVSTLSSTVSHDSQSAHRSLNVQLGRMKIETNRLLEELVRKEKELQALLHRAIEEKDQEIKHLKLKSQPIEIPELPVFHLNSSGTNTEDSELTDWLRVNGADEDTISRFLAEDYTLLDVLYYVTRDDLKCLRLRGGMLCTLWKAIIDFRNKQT

[4] = target: Tyrosine-protein kinase JAK1 (Homo sapiens) (UniProt P23458); test: Inhibition of human JAK1 domain2 in HL-60 cells lysate assessed as reduction of labeling of acyl-phosphate ATP probe at 100 nM; format: cell-free
[5] = target: T3, Mixed lineage kinase domain-like protein (Homo sapiens) (UniProt Q8NB16); test: Inhibition of human MLKL in HL-60 cells lysate assessed as reduction of labeling of acyl-phosphate ATP probe at 100 nM; format: cell-free
T3 sequence (whole entry): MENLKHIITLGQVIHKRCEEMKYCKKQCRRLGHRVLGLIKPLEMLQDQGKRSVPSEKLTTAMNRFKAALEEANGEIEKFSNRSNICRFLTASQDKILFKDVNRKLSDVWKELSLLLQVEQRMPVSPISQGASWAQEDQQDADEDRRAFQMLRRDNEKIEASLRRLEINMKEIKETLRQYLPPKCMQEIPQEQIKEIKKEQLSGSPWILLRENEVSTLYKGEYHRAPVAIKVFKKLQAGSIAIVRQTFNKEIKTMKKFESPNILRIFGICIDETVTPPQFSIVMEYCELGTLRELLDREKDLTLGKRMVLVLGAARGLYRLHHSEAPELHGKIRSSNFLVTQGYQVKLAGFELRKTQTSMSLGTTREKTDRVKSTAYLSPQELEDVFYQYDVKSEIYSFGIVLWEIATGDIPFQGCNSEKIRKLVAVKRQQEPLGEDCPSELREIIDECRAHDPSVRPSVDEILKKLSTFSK

[6] = target: c-Jun N-terminal kinase, JNK (Homo sapiens) (UniProt P45983+P53779+P45984); test: Inhibition of human JNK1/JNK2/JNK3 in HL-60 cells lysate assessed as reduction of labeling of acyl-phosphate ATP probe at 100 nM; format: cell-free

Chain of Tyrosine-protein kinase JAK1 (Homo sapiens) (P23458 whole entry, the tested form may be a part): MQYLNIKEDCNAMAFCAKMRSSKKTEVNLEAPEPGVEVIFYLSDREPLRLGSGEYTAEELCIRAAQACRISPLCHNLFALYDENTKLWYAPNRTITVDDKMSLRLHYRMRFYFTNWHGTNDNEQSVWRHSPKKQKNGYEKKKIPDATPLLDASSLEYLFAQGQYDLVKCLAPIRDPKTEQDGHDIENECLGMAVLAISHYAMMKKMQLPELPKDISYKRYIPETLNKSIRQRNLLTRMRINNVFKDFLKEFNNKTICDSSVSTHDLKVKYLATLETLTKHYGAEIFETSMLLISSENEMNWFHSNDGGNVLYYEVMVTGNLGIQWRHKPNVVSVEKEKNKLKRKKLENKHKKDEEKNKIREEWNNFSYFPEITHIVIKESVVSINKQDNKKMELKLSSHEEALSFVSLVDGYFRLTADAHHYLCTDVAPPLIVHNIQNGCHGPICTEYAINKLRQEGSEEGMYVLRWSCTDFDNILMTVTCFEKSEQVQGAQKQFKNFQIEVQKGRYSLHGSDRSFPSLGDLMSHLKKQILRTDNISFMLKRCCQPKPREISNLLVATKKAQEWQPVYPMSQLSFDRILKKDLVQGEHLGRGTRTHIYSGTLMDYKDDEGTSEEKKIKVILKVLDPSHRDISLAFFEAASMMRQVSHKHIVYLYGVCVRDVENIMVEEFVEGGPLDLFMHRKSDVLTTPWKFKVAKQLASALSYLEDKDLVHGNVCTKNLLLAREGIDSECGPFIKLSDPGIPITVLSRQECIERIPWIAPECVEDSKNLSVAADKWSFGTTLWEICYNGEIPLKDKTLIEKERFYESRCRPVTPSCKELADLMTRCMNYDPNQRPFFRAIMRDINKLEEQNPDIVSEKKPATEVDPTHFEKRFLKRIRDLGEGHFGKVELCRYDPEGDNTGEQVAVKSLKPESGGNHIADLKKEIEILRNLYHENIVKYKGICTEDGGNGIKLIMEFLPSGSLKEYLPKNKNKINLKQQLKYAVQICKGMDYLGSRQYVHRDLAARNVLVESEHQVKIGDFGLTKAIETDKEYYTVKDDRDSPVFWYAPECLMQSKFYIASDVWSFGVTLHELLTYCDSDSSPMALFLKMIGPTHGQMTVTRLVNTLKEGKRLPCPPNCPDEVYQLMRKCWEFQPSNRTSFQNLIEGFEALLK
Chain of Dual specificity mitogen-activated protein kinase kinase 1 (Homo sapiens) (Q02750 whole entry): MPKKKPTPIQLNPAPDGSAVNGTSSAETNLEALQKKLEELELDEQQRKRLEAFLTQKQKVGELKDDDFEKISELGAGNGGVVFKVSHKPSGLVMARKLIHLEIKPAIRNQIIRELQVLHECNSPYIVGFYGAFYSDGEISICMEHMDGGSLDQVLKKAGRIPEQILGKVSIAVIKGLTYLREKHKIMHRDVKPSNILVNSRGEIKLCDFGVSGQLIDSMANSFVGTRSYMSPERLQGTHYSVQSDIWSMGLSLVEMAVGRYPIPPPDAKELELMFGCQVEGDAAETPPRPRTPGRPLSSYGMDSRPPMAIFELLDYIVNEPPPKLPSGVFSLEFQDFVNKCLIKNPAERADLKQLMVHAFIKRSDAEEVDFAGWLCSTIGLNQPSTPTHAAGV

C[C@H]1COc2c(NCCCc3ccccn3)c(F)c(N)c3c(=O)c(C#N)cn1c23
< 35%: inhibition [1] | inhibition at 0.1 µM (HL-60) | inhibition [2] | inhibition [3] | inhibition [4] | inhibition [5] | inhibition [6]

C[C@H]1COc2c(NCCCc3ccccn3)c(F)c(N)c3c(=O)c(C(=O)O)cn1c23
< 35%: inhibition [1] | inhibition at 0.1 µM (HL-60) | inhibition [2] | inhibition [3] | inhibition [4] | inhibition [5] | inhibition [6]

C[C@H]1COc2c(NCCCn3cccn3)c(F)c(N)c3c(=O)c(C(=O)O)cn1c23
< 35%: inhibition [1] | inhibition at 0.1 µM (HL-60) | inhibition [2] | inhibition [3] | inhibition [4] | inhibition [5] | inhibition [6]

C[C@H]1COc2c(NCCCn3cccn3)c(F)c(N)c3c(=O)c(C#N)cn1c23
< 35%: inhibition [1] | inhibition at 0.1 µM (HL-60) | inhibition [2] | inhibition [3] | inhibition [4] | inhibition [5] | inhibition [6]
